These results are taken from patent US8163755B2, “Hexahydrooxazinopterine compounds” (Takeda Pharmaceutical Company Limited, priority 2009, dated 2012).

Counter-ions that a name gives are not always drawn. Some results are limits rather than exact numbers.

Broadly, the IC50 is the concentration at which inhibition is half-maximal. A high value points to weaker potency.

This test concerns the target T1, human mTOR (Homo sapiens, UniProt P42345).
T1 construct: purchased Invitrogen
Description: Inhibition of mTOR (Example A, LanthaScreen TR-FRET, GFP-4E-BP1 substrate). Format: biochemical. The settings on record: inhibition of human mTOR in the assay of Example A. Here is the method:
Example A Inhibition of mTOR
Purified mTOR are purchased from Invitrogen. mTOR activity was determined using Invitrogen's LanthaScreen system. The inhibitory properties of compounds relative to mTOR may be determined using a black 384-well-plate format in the following buffer 50 mM Hepes, 10 mM NaCl, 10 mM MgCl2, 0.2 mM EDTA, 0.01% Brij35, 2 mM DTT at pH7.3. The test compound is prepared in DMSO using 2 fold serial dilutions for 11 data points which are added to the buffer so that each dilution contains 3% DMSO.
An Assay for mTOR Inhibition is as Follows:
Combine in each well 2 μl of 1.2 μM GFP-4E-BP1 (Invitrogen) and 150 μM ATP (in buffer), 2 μl of diluted test compound (3% DMSO in buffer), and 2 μl of 6 nM mTor in buffer. The reaction mixture is then incubated at room temperature for 30 min, and quenched by adding 40 mM ETDA with 4 nM Tb-anti-p4E-BP1 [pThr46] antibody in TR-FRET dilution buffer (Invitrogen). The plate is kept at room temperature for 1 hour and then read using PheraStar (BMG labtech) LanthaScreen mode.
pIC50 values, the negative of the log of the IC50, are calculated by non-linear curve fitting of the compound concentrations and percent of inhibition to the standard pIC50 equation.
Turning to `CNC(=O)Nc1ccc(-c2ncc3c(n2)N2CCOCC2(C)C(=O)N3C(C)C)cc1` (stereo not shown) [Example 15, 1-(4-(5-isopropyl-6a-methyl-6-oxo-5,6,6a,7,9,10-hexahydro-[1,4]oxazino[3,4-h]pteridin-2-yl)phenyl)-3-methylurea], the IC50 was under 31.6 nM.

`CNC(=O)Nc1ccc(-c2ncc3c(n2)N2CCOCC2(C)C(=O)N3C(C)(C)C(=O)O)cc1` (stereo not shown) [Example 20, 2-methyl-2-(6a-methyl-2-(4-(3-methylureido)phenyl)-6-oxo-6a,7,9,10-tetrahydro-[1,4]oxazino[3,4-h]pteridin-5(6H)-yl)propanoic acid TFA salt] showed an IC50 of over 1000 nM.

`CNC(=O)Nc1ccc(-c2ncc3c(n2)N2CCOCC2(C)C(=O)N3CC2CCC2)cc1` (stereo not shown) [Example 16, 1-(4-(5-(cyclobutylmethyl)-6a-methyl-6-oxo-5,6,6a,7,9,10-hexahydro-[1,4]oxazino[3,4-h]pteridin-2-yl)phenyl)-3-methylurea] had an IC50 of under 31.6 nM.

In the case of `CNC(=O)Nc1ccc(-c2nc(N3CCOCC3)c3c(n2)N2CCOCC2(C)C(=O)N3C)cc1` (stereo not shown) [Example 14, 1-(4-(5,6a-dimethyl-4-morpholino-6-oxo-5,6,6a,7,9,10-hexahydro-[1,4]oxazino[3,4-h]pteridin-2-yl)phenyl)-3-methylurea], the IC50 is 31.6 to 1000 nM.

Molecule `CNC(=O)Nc1ccc(-c2ncc3c(n2)N2CCOC[C@@]2(C)C(=O)N3CC2CC2)cc1` [Example 4, (S)-1-(4-(5-(cyclopropylmethyl)-6a-methyl-6-oxo-5,6,6a,7,9,10-hexahydro-[1,4]oxazino[3,4-h]pteridin-2-yl)phenyl)-3-methylurea] showed an IC50 of 31.6 to 1000 nM.

`CNC(=O)Nc1ccc(-c2ncc3c(n2)N2CCOC[C@]2(C)C(=O)N3CC2CC2)cc1` [Example 3, (R)-1-(4-(5-(cyclopropylmethyl)-6a-methyl-6-oxo-5,6,6a,7,9,10-hexahydro-[1,4]oxazino[3,4-h]pteridin-2-yl)phenyl)-3-methylurea] showed an IC50 of under 31.6 nM.

On to `CC12COCCN1c1nc(-c3ccc(NC(=O)NC4CC4)cc3)ncc1N(CCCS(C)(=O)=O)C2=O` (stereo not shown) [Example 46, 1-cyclopropyl-3-(4-(6a-methyl-5-(3-(methylsulfonyl)propyl)-6-oxo-5,6,6a,7,9,10-hexahydro-[1,4]oxazino[3,4-h]pteridin-2-yl)phenyl)urea], for which the IC50 is under 31.6 nM.

For the molecule `CNC(=O)Nc1ccc(-c2ncc3c(n2)N2CCOCC2(C)C(=O)N3C[C@H](O)CO)cc1` (stereo partly drawn) [Example 22, 1-(4-(5-((S)-2,3-dihydroxypropyl)-6a-methyl-6-oxo-5,6,6a,7,9,10-hexahydro-[1,4]oxazino[3,4-h]pteridin-2-yl)phenyl)-3-methylurea], the IC50 was 31.6 to 1000 nM.

Take `CNC(=O)Nc1ccc(-c2ncc3c(n2)N2CCOCC2(C)C(=O)N3CC2CC2)cc1` (stereo not shown) [Example 1, 1-(4-(5-(cyclopropylmethyl)-6a-methyl-6-oxo-5,6,6a,7,9,10-hexahydro-[1,4]oxazino[3,4-h]pteridin-2-yl)phenyl)-3-methylurea]: the IC50 was under 31.6 nM.

In turn, `CC(F)(F)CN1C(=O)C2(C)COCCN2c2nc(-c3ccc(NC(=O)NC4CC4)cc3)ncc21` (stereo not shown) [Example 47, 1-cyclopropyl-3-(4-(5-(2,2-difluoropropyl)-6a-methyl-6-oxo-5,6,6a,7,9,10-hexahydro-[1,4]oxazino[3,4-h]pteridin-2-yl)phenyl)urea] gave an IC50 of under 31.6 nM.

Molecule `CNC(=O)Nc1ccc(-c2ncc3c(n2)N2CCOC[C@@]2(C)C(=O)N3C2CCOCC2)cc1` [Example 26, (S)-1-methyl-3-(4-(6a-methyl-6-oxo-5-(tetrahydro-2H-pyran-4-yl)-5,6,6a,7,9,10-hexahydro-[1,4]oxazino[3,4-h]pteridin-2-yl)phenyl)urea] had an IC50 of under 31.6 nM.

In the case of `CNC(=O)Nc1ccc(-c2ncc3c(n2)N2C[C@@H](C)OC[C@]2(C)C(=O)N3CC2CC2)cc1` [Example 19, 1-(4-((6aR,9R)-5-(cyclopropylmethyl)-6a,9-dimethyl-6-oxo-5,6,6a,7,9,10-hexahydro-[1,4]oxazino[3,4-h]pteridin-2-yl)phenyl)-3-methylurea], the IC50 was 31.6 to 1000 nM.

`CNC(=O)Nc1ccc(-c2ncc3c(n2)N2CCOCC2(C)C(=O)N3CC(C)(C)C)cc1` (stereo not shown) [Example 28, 1-methyl-3-(4-(6a-methyl-5-neopentyl-6-oxo-5,6,6a,7,9,10-hexahydro-[1,4]oxazino[3,4-h]pteridin-2-yl)phenyl)urea] showed an IC50 of under 31.6 nM.

`CCNC(=O)Nc1ccc(-c2ncc3c(n2)N2CCOCC2(C)C(=O)N3CC2CC2)cc1` (stereo not shown) [Example 5, 1-(4-(5-(cyclopropylmethyl)-6a-methyl-6-oxo-5,6,6a,7,9,10-hexahydro-[1,4]oxazino[3,4-h]pteridin-2-yl)phenyl)-3-ethylurea, TFA salt] gave an IC50 of under 31.6 nM.

For `C[C@]12COCCN1c1nc(-c3ccc(NC(=O)NC4CC4)cc3)ncc1N(CC(F)(F)F)C2=O` [Example 53, (R)-1-cyclopropyl-3-(4-(6a-methyl-6-oxo-5-(2,2,2-trifluoroethyl)-5,6,6a,7,9,10-hexahydro-[1,4]oxazino[3,4-h]pteridin-2-yl)phenyl)urea], the IC50 was under 31.6 nM.

`CC12COCCN1c1nc(-c3ccc(NC(=O)NC4CC4)cc3)ncc1N(C1CCS(=O)(=O)CC1)C2=O` (stereo not shown) [Example 45, 1-cyclopropyl-3-(4-[5-(1,1-dioxidotetrahydro-2H-thiopyran-4-yl)-6a-methyl-6-oxo-5,6,6a,7,9,10-hexahydro[1,4]oxazino[3,4-h]pteridin-2-yl]phenyl)urea]: the IC50 is 31.6 to 1000 nM.

`CNC(=O)Nc1ccc(-c2ncc3c(n2)N2CCOCC2(C)C(=O)N3Cc2ccn(C)n2)cc1` (stereo not shown) [Example 11, 1-methyl-3-(4-(6a-methyl-5-((1-methyl-1H-pyrazol-3-yl)methyl)-6-oxo-5,6,6a,7,9,10-hexahydro-[1,4]oxazino[3,4-h]pteridin-2-yl)phenyl)urea] gave an IC50 of 31.6 to 1000 nM.

In turn, `COCCCN1C(=O)[C@]2(C)COCCN2c2nc(-c3ccc(NC(=O)NC4CC4)cc3)ncc21` [Example 41, (S)-1-cyclopropyl-3-(4-(5-(3-methoxypropyl)-6a-methyl-6-oxo-5,6,6a,7,9,10-hexahydro-[1,4]oxazino[3,4-h]pteridin-2-yl)phenyl)urea] showed an IC50 of under 31.6 nM.

As for `CNC(=O)Nc1ccc(-c2ncc3c(n2)N2CCOCC2(C)C(=O)N3CCCOC)cc1` (stereo not shown) [Example 35, 1-(4-[5-(3-methoxypropyl)-6a-methyl-6-oxo-5,6,6a,7,9,10-hexahydro[1,4]oxazino[3,4-h]pteridin-2-yl]phenyl)-3-methylurea], the IC50 is under 31.6 nM.

Take `CNC(=O)Nc1ccc(-c2ncc3c(n2)N2CCOC[C@@]2(C)C(=O)N3C[C@H](O)CO)cc1` [Example 23]: the IC50 is 31.6 to 1000 nM.

The molecule `CC12COCCN1c1nc(-c3ccc(NC(=O)NC4CC4)cc3)ncc1N(C1CCOC1)C2=O` (stereo not shown) [Example 30, 1-cyclopropyl-3-(4-(6a-methyl-6-oxo-5-(tetrahydrofuran-3-yl)-5,6,6a,7,9,10-hexahydro-[1,4]oxazino[3,4-h]pteridin-2-yl)phenyl)urea] had an IC50 of under 31.6 nM.

`CNC(=O)Nc1ccc(-c2ncc3c(n2)N2CCOCC2(C)C(=O)N3C2CC2)cc1` (stereo not shown) [Example 17, 1-(4-(5-cyclopropyl-6a-methyl-6-oxo-5,6,6a,7,9,10-hexahydro-[1,4]oxazino[3,4-h]pteridin-2-yl)phenyl)-3-methylurea]: the IC50 was 31.6 to 1000 nM.

`CC(F)(F)CN1C(=O)[C@]2(C)COCCN2c2nc(-c3ccc(NC(=O)NC4CC4)cc3)ncc21` [Example 49, (S)-1-cyclopropyl-3-(4-(5-(2,2-difluoropropyl)-6a-methyl-6-oxo-5,6,6a,7,9,10-hexahydro-[1,4]oxazino[3,4-h]pteridin-2-yl)phenyl)urea] gave an IC50 of under 31.6 nM.

`CC12COCCN1c1nc(-c3ccc(NC(=O)NC4CC4)cc3)ncc1N(CC1CC1)C2=O` (stereo not shown) [Example 6, 1-cyclopropyl-3-(4-(5-(cyclopropylmethyl)-6a-methyl-6-oxo-5,6,6a,7,9,10-hexahydro-[1,4]oxazino[3,4-h]pteridin-2-yl)phenyl)urea, TFA salt]: the IC50 is 31.6 to 1000 nM.

For the molecule `CNC(=O)Nc1ccc(-c2ncc3c(n2)N2CCO[C@@H](C)[C@@]2(C)C(=O)N3CC2CC2)cc1` [Example 18, 1-(4-((6aS,7S)-5-(cyclopropylmethyl)-6a,7-dimethyl-6-oxo-5,6,6a,7,9,10-hexahydro-[1,4]oxazino[3,4-h]pteridin-2-yl)phenyl)-3-methylurea], the IC50 was under 31.6 nM.

`CCNC(=O)Nc1ccc(-c2ncc3c(n2)N2CCOC[C@@]2(C)C(=O)N3CC2CC2)cc1` [Example 7, (S)-1-(4-(5-(cyclopropylmethyl)-6a-methyl-6-oxo-5,6,6a,7,9,10-hexahydro-[1,4]oxazino[3,4-h]pteridin-2-yl)phenyl)-3-ethylurea] had an IC50 of under 31.6 nM.

Take `CNC(=O)Nc1ccc(-c2ncc3c(n2)N2CCOC[C@]2(C)C(=O)N3C[C@H](O)CO)cc1` [Example 24]: the IC50 was over 1000 nM.

For `CNC(=O)Nc1ccc(-c2ncc3c(n2)N2CCOC[C@@]2(C)C(=O)N3CCCOC)cc1` [Example 36, (S)-1-(4-[5-(3-methoxypropyl)-6a-methyl-6-oxo-5,6,6a,7,9,10-hexahydro[1,4]oxazino[3,4-h]pteridin-2-yl]phenyl)-3-methylurea], the IC50 is under 31.6 nM.
